Results from PubChem BioAssay (NCI).
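Test compounds were applied to cells in 96-well plates for 48 hours at 5 doses. GI50 marks 50% less growth. TGI: total growth inhibition.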

Legend:
Experiment in all cases: NCI tumour cell line growth inhibition, 48 h
[1] = system: A498 renal
[2] = system: NCI-H522 lung
[3] = system: T-47D breast
[4] = system: OVCAR-8 ovarian
[5] = system: SF-295 CNS
[6] = system: SNB-19 CNS
[7] = system: HCT-116 colon
[8] = system: SK-OV-3 ovarian
[9] = system: BT-549 breast
[10] = system: K-562 leukemia

## Oc1ccc(Oc2cnc3ccccc3n2)cc1
[1]
  GI50: 37.2 µM
  TGI: > 100 µM
[2]
  GI50: > 100 µM
  TGI: > 100 µM
[3]
  GI50: 84.5 µM
  TGI: > 100 µM
[4]
  GI50: > 100 µM
  TGI: > 100 µM
[5]
  GI50: 38.2 µM
  TGI: > 100 µM
[6]
  GI50: > 100 µM
  TGI: > 100 µM
[7]
  GI50: > 100 µM
  TGI: > 100 µM
[8]
  GI50: > 100 µM
  TGI: > 100 µM
[9]
  GI50: 12.3 µM
  TGI: 57.5 µM
[10]
  GI50: > 100 µM
  TGI: > 100 µM

## COc1ccc(-c2cc(Nc3ccnc(N4CCOCC4)n3)on2)cc1
[1]
  GI50: 0.343 µM
  TGI: 2.41 µM
[2]
  GI50: 0.0815 µM
  TGI: 3.12 µM
[3]
  GI50: 0.566 µM
  TGI: 21.6 µM
[4]
  GI50: 0.443 µM
  TGI: 11.4 µM
[5]
  GI50: 0.171 µM
  TGI: 5.95 µM
[6]
  GI50: 0.428 µM
  TGI: 17.6 µM
[7]
  GI50: 0.081 µM
  TGI: 13 µM
[8]
  GI50: 0.351 µM
  TGI: 22.5 µM
[9]
  GI50: 0.802 µM
  TGI: 15.1 µM
[10]
  GI50: 0.047 µM
  TGI: 20.9 µM

## Cc1c2c(C(N)=O)nccc2c(C)c2c1c1ccccc1n2Cc1ccccc1
[1]
  TGI: 46 µM
[2]
  TGI: 54.6 µM
[3]
  TGI: 79.5 µM
[4]
  TGI: 31.3 µM
[5]
  TGI: 31.2 µM
[6]
  TGI: 51.2 µM
[7]
  TGI: 29 µM
[8]
  TGI: 47.6 µM
[9]
  TGI: 90.4 µM
[10]
  TGI: 45.7 µM

## O=C(N/N=C/c1ccc(O)cc1O)c1cccnc1
[1]
  GI50: 11.5 µM
  TGI: 84.1 µM
[2]
  GI50: 3.21 µM
  TGI: > 100 µM
[3]
  GI50: 3.45 µM
  TGI: 86 µM
[4]
  GI50: 2.5 µM
  TGI: 96.3 µM
[5]
  GI50: 6.66 µM
  TGI: > 100 µM
[6]
  GI50: 5.8 µM
  TGI: > 100 µM
[7]
  GI50: 0.876 µM
  TGI: > 100 µM
[8]
  GI50: 11.4 µM
  TGI: > 100 µM
[9]
  GI50: 7.06 µM
  TGI: 81.6 µM

## CCOC(=O)C1=C(N)Oc2c(sc3c(C)cccc23)C1c1ccc(F)cc1 (stereo not drawn)
[1]
  GI50: 0.211 µM
  TGI: 1.26 µM
[2]
  GI50: 0.35 µM
  TGI: 3.29 µM
[3]
  GI50: 2.61 µM
  TGI: 26.4 µM
[4]
  GI50: 0.581 µM
  TGI: 18.1 µM
[5]
  GI50: 0.297 µM
  TGI: 2.41 µM
[6]
  GI50: 0.621 µM
  TGI: 16.3 µM
[7]
  GI50: 0.429 µM
  TGI: 11.8 µM
[8]
  GI50: 11.5 µM
  TGI: 32.3 µM
[9]
  GI50: 2.07 µM
  TGI: 12.6 µM
[10]
  GI50: 0.375 µM
  TGI: > 42.7 µM

## O=C(NNc1cnccn1)c1nc2cc(F)ccc2n2cccc12
[1]
  GI50: 0.575 µM
  TGI: 2.67 µM
[2]
  GI50: 0.281 µM
  TGI: 0.963 µM
[3]
  GI50: 0.385 µM
  TGI: > 100 µM
[4]
  GI50: 0.429 µM
  TGI: > 100 µM
[5]
  GI50: 0.531 µM
  TGI: > 100 µM
[6]
  GI50: 0.7 µM
  TGI: > 100 µM
[7]
  GI50: 0.46 µM
  TGI: > 100 µM
[8]
  GI50: 0.522 µM
  TGI: > 100 µM
[9]
  GI50: 2.24 µM
  TGI: > 62.8 µM
[10]
  GI50: 0.387 µM
  TGI: > 100 µM

## COc1ccc(/C=C/c2cnccn2)cc1OC
[1]
  TGI: > 10 µM
[2]
  TGI: > 10 µM
[3]
  TGI: > 10 µM
[4]
  TGI: > 10 µM
[5]
  TGI: > 10 µM
[6]
  TGI: > 10 µM
[7]
  TGI: > 10 µM
[8]
  TGI: > 10 µM
[9]
  TGI: > 10 µM

## Cn1cc(S(=O)(=O)N2CCC3=Cc4c(cnn4-c4ccc(F)cc4)C[C@]3(C(=O)c3cc(C(F)(F)F)ccn3)C2)cn1
[1]
  GI50: 4.64 µM
  TGI: > 100 µM
[2]
  GI50: > 100 µM
  TGI: > 100 µM
[3]
  GI50: 13.3 µM
  TGI: > 100 µM
[4]
  GI50: > 100 µM
  TGI: > 100 µM
[5]
  GI50: > 100 µM
  TGI: > 100 µM
[6]
  GI50: > 100 µM
  TGI: > 100 µM
[7]
  GI50: 11.1 µM
  TGI: > 100 µM
[9]
  GI50: 26.6 µM
  TGI: > 100 µM
[10]
  GI50: > 100 µM
  TGI: > 100 µM

## Oc1ccc(/C=C/c2cc(O)cc3c2C(c2cc(O)cc(O)c2)C(c2ccc(O)c(O)c2)O3)cc1 (stereo not drawn)
[1]
  TGI: > 100 µM
[2]
  TGI: 83 µM
[3]
  TGI: > 100 µM
[4]
  TGI: 68.2 µM
[5]
  TGI: > 100 µM
[6]
  TGI: 54.3 µM
[7]
  TGI: > 100 µM
[8]
  TGI: > 100 µM
[9]
  TGI: 64.4 µM

## c1ccc2c(c1)c1ccccc1c1ccccc21
[1]
  GI50: > 100 µM
  TGI: > 100 µM
[2]
  GI50: > 100 µM
  TGI: > 100 µM
[3]
  GI50: > 100 µM
  TGI: > 100 µM
[4]
  GI50: > 100 µM
  TGI: > 100 µM
[6]
  GI50: > 100 µM
  TGI: > 100 µM
[7]
  GI50: > 100 µM
  TGI: > 100 µM
[8]
  GI50: > 100 µM
  TGI: > 100 µM
[9]
  GI50: > 100 µM
  TGI: > 100 µM
[10]
  GI50: > 100 µM
  TGI: > 100 µM

## NCCCOc1cc2ccccc2cc1C(=O)NCCCOc1cc2ccccc2cc1C(=O)Nc1ccc(Cl)cc1O
[1]
  GI50: 0.552 µM
  TGI: 1.99 µM
[2]
  GI50: 0.929 µM
  TGI: 2.89 µM
[3]
  GI50: 1.88 µM
  TGI: 4.24 µM
[4]
  GI50: 0.24 µM
  TGI: 0.557 µM
[6]
  GI50: 0.72 µM
  TGI: 2.88 µM
[7]
  GI50: 0.19 µM
  TGI: 0.374 µM
[9]
  GI50: 1.85 µM
  TGI: 3.6 µM
[10]
  GI50: 0.262 µM
  TGI: 1.02 µM
